Work on O=[N+]([O-])/N=C1\NCCN1Cc1ccc(Cl)nc1 yielded a solubility (mole fraction) (in acetone, 283.15 K) of 0.00862, a solubility (mole fraction) (in acetone, 288.15 K) of 0.0102 and a solubility (mole fraction) (in acetone, 293.15 K) of 0.012. It also gave a solubility (mole fraction) (in acetone, 298.15 K) of 0.014, a solubility (mole fraction) (in acetone, 303.15 K) of 0.0163 and a solubility (mole fraction) (in acetone, 308.15 K) of 0.0188. It also gave a solubility (mole fraction) (in acetone, 313.15 K) of 0.0218, a solubility (mole fraction) (in acetone, 318.15 K) of 0.0249 and a solubility (mole fraction) (in acetone, 323.15 K) of 0.0285. For the same molecule, the solubility (mole fraction) (in ethanol, 283.15 K) was 0.000303, the solubility (mole fraction) (in ethanol, 288.15 K) was 0.0004 and the solubility (mole fraction) (in ethanol, 293.15 K) was 0.00053. It also gave a solubility (mole fraction) (in ethanol, 298.15 K) of 0.000699, a solubility (mole fraction) (in ethanol, 303.15 K) of 0.000895 and a solubility (mole fraction) (in ethanol, 308.15 K) of 0.00115. It also gave a solubility (mole fraction) (in ethanol, 313.15 K) of 0.00148, a solubility (mole fraction) (in ethanol, 318.15 K) of 0.00191 and a solubility (mole fraction) (in ethanol, 323.15 K) of 0.00238. For the same molecule, the solubility (mole fraction) (in methanol, 283.15 K) was 0.000689, the solubility (mole fraction) (in methanol, 288.15 K) was 0.000882 and the solubility (mole fraction) (in methanol, 293.15 K) was 0.00112. The solubility (mole fraction) (in methanol, 298.15 K) was 0.00141, the solubility (mole fraction) (in methanol, 303.15 K) was 0.00177 and the solubility (mole fraction) (in methanol, 308.15 K) was 0.00221. It also gave a solubility (mole fraction) (in methanol, 313.15 K) of 0.00274, a solubility (mole fraction) (in methanol, 318.15 K) of 0.00339 and a solubility (mole fraction) (in methanol, 323.15 K) of 0.0041. The solubility (mole fraction) (in n-propanol, 283.15 K) was 0.000266, the solubility (mole fraction) (in n-propanol, 288.15 K) was 0.000362 and the solubility (mole fraction) (in n-propanol, 293.15 K) was 0.000475. It also gave a solubility (mole fraction) (in n-propanol, 298.15 K) of 0.00064, a solubility (mole fraction) (in n-propanol, 303.15 K) of 0.000837 and a solubility (mole fraction) (in n-propanol, 308.15 K) of 0.00109. For the same molecule, the solubility (mole fraction) (in n-propanol, 313.15 K) was 0.0014, the solubility (mole fraction) (in n-propanol, 318.15 K) was 0.00179 and the solubility (mole fraction) (in n-propanol, 323.15 K) was 0.00228. It also gave a solubility (mole fraction) (in water, 283.15 K) of 6.79e-06, a solubility (mole fraction) (in water, 288.15 K) of 9.67e-06 and a solubility (mole fraction) (in water, 293.15 K) of 1.36e-05. The solubility (mole fraction) (in water, 298.15 K) was 1.87e-05, the solubility (mole fraction) (in water, 303.15 K) was 2.56e-05 and the solubility (mole fraction) (in water, 308.15 K) was 3.43e-05. It also gave a solubility (mole fraction) (in water, 313.15 K) of 4.71e-05, a solubility (mole fraction) (in water, 318.15 K) of 6.23e-05 and a solubility (mole fraction) (in water, 323.15 K) of 8.15e-05.
